Results published in patent US20230146455A1, “TREATMENT OF INFLAMMATORY DISEASES WITH PEPTIDES AND PHARMACEUTICAL COMPOSITIONS” (Yuyu Pharma, Inc., priority 2020, published 2023).
Several values for one entry are separate records, joined by “and”; a condition that tells them apart may be missing. Identical values can stand only once. Where a SMILES comes first, the peptide text is derived from it. [ ]: non-standard residue; d: D form. Hyp = O=C(O)[C@@H]1C[C@@H](O)CN1

Tested on: TNF-alpha
Assay: Example 8 main study Luminex, LPS hPBMCs: TNF-alpha
Format: cell-based, human
Settings: for TNF-alpha Concentration: individual replicates; for TNF-alpha Concentration (pg/ml), Mean: mean of replicates; for LPS-induced TNF-α (in words): at as low as 5 μM, LPS 5 ug/mL 24 hrs
Procedure: Human PBMCs were pretreated with YY-101, YDE-011, YDE-043 or reference compound; Xiidra® at various concentration (ranging from […] to 500 nM) for 2 h before stimulation. An equal volume of 0.5% DMSO was used as a vehicle control. Then, the cells were treated with LPS at 5 ug/ml, which was selected based on the pilot study. The supernatants from treated cells were harvested at 24 h and placed in a 96 well for Luminex cytokine & chemokine profiling using a Luminex 200 multiplex assay (Luminex; R&D system, USA).
The main study arm with triplicate wells per group in a 24-well plate: • 1. Blank • 2. PBMC: 0.5% DMSO • 3. PBMC+LPS (5 ug/ml) • 4. PBMC+YY-101 500 nM • 5. PBMC+YY-101 50 nM • 6. PBMC+YY-101 5 nM • 7. PBMC+YY-101 0.5 nM • 8. PBMC+LPS (5 ug/ml)+Xiidra® 500 nM • 9. PBMC+LPS (5 ug/ml)+Xiidra® 50 nM • 10. PBMC+LPS (5 ug/ml)+Xiidra® 5 nM • 11. PBMC+LPS (5 ug/ml)+Xiidra® 0.5 nM • 12. PBMC+LPS (5 ug/ml)+Xiidra® 0.05 nM • 13. PBMC+LPS (5 ug/ml)+Xiidra® 0.005 nM • 14. PBMC+LPS (5 ug/ml)+YY-101 500 nM • 15. PBMC+LPS (5 ug/ml)+YY-101 50 nM • 16. PBMC+LPS (5 ug/ml)+YY-101 5 nM • 17. PBMC+LPS (5 ug/ml)+YY-101 0.5 nM • 18. PBMC+LPS (5 ug/ml)+YY-101 0.05 nM • 19. PBMC+LPS (5 ug/ml)+YY-101 0.005 nM • 20. PBMC+LPS (5 ug/ml)+YDE-011 500 nM • 21. PBMC+LPS (5 ug/ml)+YDE-011 50 nM • 22. PBMC+LPS (5 ug/ml)+YDE-011 5 nM • 23. PBMC+LPS (5 ug/ml)+YDE-011 0.5 nM • 24. PBMC+LPS (5 ug/ml)+YDE-011 0.05 nM • 25. PBMC+LPS (5 ug/ml)+YDE-011 0.005 nM • 26. PBMC+LPS (5 ug/ml)+YDE-043 500 nM • 27. PBMC+LPS (5 ug/ml)+YDE-043 50 nM • 28. PBMC+LPS (5 ug/ml)+YDE-043 5 nM • 29. PBMC+LPS (5 ug/ml)+YDE-043 0.5 nM • 30. PBMC+LPS (5 ug/ml)+YDE-043 0.05 nM • 31. PBMC+LPS (5 ug/ml)+YDE-043 0.005 nM
Multiplex assay was used to measure 30 cytokines and chemokines. The 1:200 diluted cell supernatant and serial dilution of the standard were dispensed into a 96 well plate at 50 ul/well. Then, the pre-mixed cocktail of antibody-coated magnetic beads was dispensed at 50 ul/well and incubated at room temperature for 2 h in a horizontal orbital microplate shaker at 800±500 rpm. The beads were washed using a magnetic device to prevent loss. The biotin-antibody was dispensed in 50 ul of each well and incubated at room temperature for 1 h in a shaker at 800±500 rpm. After washing, streptavidin-PE was added at 50 ul/well and incubated at room temperature for 30 min in a shaker under the same conditions. Finally, after washing, wash buffer (100 ul/well) was added to the plate and incubated in a shaker for 2 min. The Luminex™ 200 setting were set according to the manufacturer's protocol. The data was calculated with a standard five-parameter logistic nonlinear regression analysis of the data (xPonent software 4.2, USA). Results were presented as concentration (ng/ml or pg/ml).

[1] = PBMC + LPS(5 ug/ml) + test article 0.005 nM
[2] = PBMC + LPS(5 ug/ml) + test article 0.05 nM
[3] = PBMC + LPS(5 ug/ml) + test article 0.5 nM
[4] = PBMC + LPS(5 ug/ml) + test article 5 nM
[5] = PBMC + LPS(5 ug/ml) + test article 50 nM
[6] = PBMC + LPS(5 ug/ml) + test article 500 nM

CC(C)C[C@H](NC(=O)CNC(=O)[C@H](CC(=O)O)NC(=O)[C@H](CCC(N)=O)NC(=O)CNC(=O)[C@@H]1C[C@@H](O)CN1)C(=O)N[C@@H](C)C(=O)NCC(=O)N1CCC[C@H]1C(=O)N[C@@H](CCCCN)C(=O)O [YY-101] (H-[Hyp]GQDGLAGPK-OH; N-terminus and C-terminus assumed)
TNF-alpha Concentration [1]: 2871.6 pg/mL and 2369.4 pg/mL and 2179.5 pg/mL
TNF-alpha Concentration (pg/ml), Mean [1]: 2473.5 pg/mL
TNF-alpha Concentration [2]: 1797.0 pg/mL and 2621.2 pg/mL and 2242.9 pg/mL
TNF-alpha Concentration (pg/ml), Mean [2]: 2220.4 pg/mL
TNF-alpha Concentration [3]: 2432.5 pg/mL and 2242.9 pg/mL and 2116.1 pg/mL
TNF-alpha Concentration (pg/ml), Mean [3]: 2263.8 pg/mL
TNF-alpha Concentration [4]: 1988.8 pg/mL and 1925.0 pg/mL and 2242.9 pg/mL
TNF-alpha Concentration (pg/ml), Mean [4]: 2052.2 pg/mL
TNF-alpha Concentration [5]: 1732.8 pg/mL and 1668.5 pg/mL and 1988.8 pg/mL
TNF-alpha Concentration (pg/ml), Mean [5]: 1796.7 pg/mL
TNF-alpha Concentration [6]: 2179.5 pg/mL and 1988.8 pg/mL and 1797.0 pg/mL
TNF-alpha Concentration (pg/ml), Mean [6]: 1988.4 pg/mL
TNF-alpha Concentration (PBMC + test article 0.5 nM, no LPS, dilution 200): <7.70 pg/mL
TNF-alpha Concentration (PBMC + test article 5 nM, no LPS, dilution 200): <7.70 pg/mL
TNF-alpha Concentration (PBMC + test article 0.05 uM, no LPS, dilution 200): <7.70 pg/mL
TNF-alpha Concentration (PBMC + test article 50 nM, no LPS, dilution 200): <7.70 pg/mL
TNF-alpha Concentration (PBMC + test article 500 nM, no LPS, dilution 200): <7.70 pg/mL
LPS-induced TNF-α (in words): significantly reduced

CC(C)C[C@H](NC(=O)CNC(=O)[C@H](CC(C)C)NC(=O)[C@H](CCC(N)=O)NC(=O)CNC(=O)[C@@H]1C[C@@H](O)CN1)C(=O)N[C@@H](C)C(=O)NCC(=O)N1CCC[C@H]1C(=O)N[C@@H](CCCCN)C(=O)O [YDE-011] (H-[Hyp]GQLGLAGPK-OH)
TNF-alpha Concentration [1]: 2116.1 pg/mL and 1988.8 pg/mL and 1861.0 pg/mL
TNF-alpha Concentration (pg/ml), Mean [1]: 1988.6 pg/mL
TNF-alpha Concentration [2]: 1861.0 pg/ml and 2052.5 pg/ml (2×)
TNF-alpha Concentration (pg/ml), Mean [2]: 1988.7 pg/mL
TNF-alpha Concentration [3]: 1344.6 pg/mL and 1988.8 pg/mL and 1797.0 pg/mL
TNF-alpha Concentration (pg/ml), Mean [3]: 1710.1 pg/mL
TNF-alpha Concentration [4]: 749.3 pg/mL and 1409.7 pg/mL and 1668.5 pg/mL
TNF-alpha Concentration (pg/ml), Mean [4]: 1275.8 pg/mL
TNF-alpha Concentration [5]: 1732.8 pg/mL and 2179.5 pg/mL and 442.1 pg/mL
TNF-alpha Concentration (pg/ml), Mean [5]: 1451.5 pg/mL
TNF-alpha Concentration [6]: 2116.1 pg/mL and 647.8 pg/mL and 1246.7 pg/mL
TNF-alpha Concentration (pg/ml), Mean [6]: 1336.9 pg/mL
LPS-induced TNF-α (in words): significantly reduced

CC(C)C[C@H](NC(=O)[C@H](CCC(N)=O)NC(=O)CNC(=O)[C@@H]1C[C@@H](O)CN1)C(=O)NCC(=O)O [YDE-043] (H-[Hyp]GQLG-OH; N-terminus and C-terminus assumed)
TNF-alpha Concentration [1]: 2052.5 pg/mL and 1797.0 pg/mL and 2306.2 pg/mL
TNF-alpha Concentration (pg/ml), Mean [1]: 2051.9 pg/mL
TNF-alpha Concentration [2]: 1181.1 pg/mL and 1539.4 pg/mL and 1474.6 pg/mL
TNF-alpha Concentration (pg/ml), Mean [2]: 1398.4 pg/mL
TNF-alpha Concentration [3]: 1764.9 pg/ml and 1409.7 pg/ml (2×)
TNF-alpha Concentration (pg/ml), Mean [3]: 1528.1 pg/mL
TNF-alpha Concentration [4]: 1442.2 pg/mL and 2052.5 pg/mL and 1474.6 pg/mL
TNF-alpha Concentration (pg/ml), Mean [4]: 1656.4 pg/mL
TNF-alpha Concentration [5]: 2020.6 pg/mL and 1797.0 pg/mL and 1474.6 pg/mL
TNF-alpha Concentration (pg/ml), Mean [5]: 1764.1 pg/mL
TNF-alpha Concentration [6]: 1604.0 pg/mL and 1115.3 pg/mL and 1344.6 pg/mL
TNF-alpha Concentration (pg/ml), Mean [6]: 1354.6 pg/mL
LPS-induced TNF-α (in words): significantly reduced
